Experimental data as given in publication PMC6964270, “Co-Prodrugs of 7-Ethyl-10-hydroxycamptothecin and Vorinostat with in Vitro Hydrolysis and Anticancer Effects” (ACS Omega, 2019).

Tests used:
A549 cell line = test: In vitro cytotoxicity, SRB assay, A549; format: cell-based; conditions: Homo sapiens, 72 h, three independent determinations, read-out: IC50 (mean ± SD) A549
HCT116 cell line = test: In vitro cytotoxicity, SRB assay, HCT116; format: cell-based; conditions: Homo sapiens, HCT-116, 72 h, three independent determinations, read-out: IC50 (mean ± SD) HCT-116
[1] = In vitro degradation and release of co-prodrugs in PBS pH 7.4 (HPLC); format: physicochemical; conditions: pH 7.4 PBS, 37 °C; for formation percentage of SN38: 24 h later
Method: (§1) Chromatographic detection was carried out by using Agilent 1200 high-performance liquid chromatography (HPLC, Agilent, Palo Alto, CA) with a Diamonsil C18 (250 mm × 4.6 mm) column. The detection was conducted at 254 nm (UV detector) with the column temperature at room temperature. The sample volume for each injection was 50 μL. The gradient elution was applied with a mobile phase of acetonitrile (ACN) containing 0.1% formic acid and water containing 0.1% formic acid with a constant flow rate of 1 mL/min: 0–15 min (5% ACN to 95% ACN), 15–25 min (95% ACN). The external standard method was established by HPLC in order to determine the content of each compound.
SN38-SAHA co-prodrug solutions with a concentration of 100 μM/L were diluted to 0.05 μM/L with 10 mM PBS buffer (pH 7.4/6.0). After incubation at 37 °C for 0.5, 1, 2, 3, 4, 6, 12, 24, and 48 h, the areas of SN38-SAHA co-prodrugs and other species were detected by HPLC as well. Then each compound was calculated by the concentration–area standard curve, which was obtained by the external standard method.

[2] = In vitro degradation and release of co-prodrugs in human plasma (HPLC); format: in vitro ADME; conditions: male, 37 °C, read-out: t1/2 of co-prodrug in plasma (converted)
Description: SAHA was synthesized before. SN-38 was purchased from Shanghai Puyi Chemical Co., Ltd. Di-tert-butyl dicarbonate ((Boc)2O), 4-dimethylaminopyridine (DMAP), 1,1′-carbonyl-diimidazole (CDI), and N,N′-diisopropylcarbodiimide (DIC) were all purchased from Energy Chemical Reagent Co. ( Shanghai, China). The different amino acids were purchased from Meryer Chemical Reagent Co. (Shanghai, China). CH2Cl2 was dried and redistilled before use. All chemical reagents used were of analytical-grade quality. Mouse plasma was taken from KM mouse (male, 6 weeks old). Human plasma was donated by an adult.
as §1
SN38-SAHA co-prodrug solutions with a concentration of 100 μM/L were diluted to 0.1 μM/L by plasma (human/mouse). After incubation at 37 °C for 0.5, 1, 2, 3, 4, and 6 h, 50 μL of reaction mixture was quenched with 50 μL of cold ACN and centrifuged at 30000 rpm × 5 min. The supernatant (50 μL) was detected by HPLC. Then each compound was calculated by the concentration–area standard curve, which was obtained by the external standard method.

CCc1c2c(nc3ccc(O)cc13)-c1cc3c(c(=O)n1C2)COC(=O)[C@@]3(CC)OC(=O)CNC(=O)ONC(=O)CCCCCCC(=O)Nc1ccccc1 [3a]
IC50 (A549 cell line): 87.3 ± 7.9 nM | IC50 (HCT116 cell line): 113 ± 10.8 nM | half-life at 0.05 μM/L ([1]; PBS buffer, read-out: half-life (t1/2) of co-prodrug in PBS (converted)): 2 h | formation percentage of SN38 [1]: 26.3% | half-life at 0.1 μM/L [2]: 1 h

CCc1c2c(nc3ccc(O)cc13)-c1cc3c(c(=O)n1C2)COC(=O)[C@@]3(CC)OC(=O)CCNC(=O)ONC(=O)CCCCCCC(=O)Nc1ccccc1 [3b]
IC50 (A549 cell line): 322 ± 32.5 nM | IC50 (HCT116 cell line): 428 ± 20.5 nM | formation percentage of SN38 [1]: 3.4% | half-life at 0.1 μM/L [2]: 3 h

CCc1c2c(nc3ccc(O)cc13)-c1cc3c(c(=O)n1C2)COC(=O)[C@@]3(CC)OC(=O)CCCNC(=O)ONC(=O)CCCCCCC(=O)Nc1ccccc1 [3c]
IC50 (A549 cell line): 663 ± 24.3 nM | IC50 (HCT116 cell line): 760 ± 30.9 nM | formation percentage of SN38 [1]: almost have no SN38 generated | half-life at 0.1 μM/L [2]: 5 h

CCc1c2c(nc3ccc(O)cc13)-c1cc3c(c(=O)n1C2)COC(=O)[C@@]3(CC)OC(=O)CCCCCNC(=O)ONC(=O)CCCCCCC(=O)Nc1ccccc1 [3d]
IC50 (A549 cell line): 3100 ± 116 nM | IC50 (HCT116 cell line): 3010 ± 251 nM | formation percentage of SN38 [1]: almost have no SN38 generated | half-life at 0.1 μM/L [2]: 5 h

CCc1c2c(nc3ccc(O)cc13)-c1cc3c(c(=O)n1C2)COC(=O)[C@]3(O)CC [SN38, 7-Ethyl-10-hydroxycamptothecin]
IC50 (A549 cell line): 45.4 ± 4.7 nM | IC50 (HCT116 cell line): 55.1 ± 10 nM
